Results reported in ChEMBL document CHEMBL4513161, “CO-ADD screening of MMV (CH) - Pandemic Response Box” (2021).
Values after ≈ are worked out from the molar mass of the structure shown.

Columns and labels:
HEK293 = assay: cells; assay type: functional, Homo sapiens, ATCC CRL1573; conditions: Homo sapiens, ATCC CRL1573, HEK293; ASSAY_TEST Inhibition of Cell Viability; detection method Resazurin; Fluorescence (ex560/em590); MEDIA DMEM with 10% FBS; plate type 384well; TC; CORNING #3712; time 18 hr; read-out: CC50
Pseudomonas aeruginosa [1] = assay: Antibacterial activity against Pseudomonas aeruginosa PAO397 [PAO1 d(mexAB-oprM) d(mexCD-oprJ) d(mexEF-oprN) d(mexJKL) d(mexXY) d(opmH)] (CO-ADD:GN_211); MIC in CAMBH media using NBS plates, by OD(600); assay type: functional; conditions: ASSAY_TEST Inhibition of Bacterial Growth, detection method Absorption (OD600), MEDIA CAMHB, plate type 384well, CORNING #3640, time 18 hr
Staphylococcus aureus = assay: microbe, parasite or virus in culture; conditions: ATCC 43300, 18 h, ASSAY_TEST Inhibition of Bacterial Growth, detection method Absorption (OD600), MEDIA CAMHB, plate type 384well, NBS, CORNING #3640
Description: Antibacterial activity against Staphylococcus aureus MRSA ATCC 43300 (CO-ADD:GP_020); MIC in CAMBH media, using NBS plates, by OD(600)

Escherichia coli = assay: microbe, parasite or virus in culture; conditions: ATCC 25922, 18 h, ASSAY_TEST Inhibition of Bacterial Growth, detection method Absorption (OD600), MEDIA CAMHB, plate type 384well, NBS, CORNING #3640
Description: Antibacterial activity against Escherichia coli ATCC 25922 (CO-ADD:GN_001); MIC in CAMBH media using NBS plates, by OD(600)

Klebsiella pneumoniae = assay: microbe, parasite or virus in culture; conditions: ATCC 700603, 18 h, ASSAY_TEST Inhibition of Bacterial Growth, detection method Absorption (OD600), MEDIA CAMHB, plate type 384well, NBS, CORNING #3640
Description: Antibacterial activity against Klebsiella pneumoniae MDR ATCC 70063 (CO-ADD:GN_003); MIC in CAMBH media using NBS plates, by OD(600)

Pseudomonas aeruginosa [2] = assay: microbe, parasite or virus in culture; conditions: ATCC 27853, 18 h, ASSAY_TEST Inhibition of Bacterial Growth, detection method Absorption (OD600), MEDIA CAMHB, plate type 384well, NBS, CORNING #3640
Description: Antibacterial activity against Pseudomonas aeruginosa ATCC 27853 (CO-ADD:GN_042); MIC in CAMBH media using NBS plates, by OD(600)

Acinetobacter baumannii = assay: microbe, parasite or virus in culture; conditions: ATCC 19606, 18 h, ASSAY_TEST Inhibition of Bacterial Growth, detection method Absorption (OD600), MEDIA CAMHB, plate type 384well, NBS, CORNING #3640
Description: Antibacterial activity against Acinetobacter baumannii ATCC 19606 (CO-ADD:GN_034); MIC in CAMBH media using NBS plates, by OD600

Candida albicans = assay: microbe, parasite or virus in culture; conditions: ATCC 90028, ASSAY_TEST Inhibition of Fungal Growth, detection method Absorption (OD530), plate type 384well, NBS, CORNING #3640
Description: Antifungal activity against Candida albicans ATCC 90028 (CO-ADD:FG_001); MIC in YNB media using NBS plates, by OD630

Description for Cryptococcus neoformans: Antifungal activity against Cryptococcus neoformans H99 ATCC 208821 (CO-ADD:FG_002); MIC in YNB media using NBS plates, by Resazurin OD(600-570)

SMILES | CC50 (HEK293) [µM] | MIC (Pseudomonas aeruginosa [1]) [µM] | MIC (Cryptococcus neoformans) [µM] | MIC (Staphylococcus aureus) [µM] | MIC (Escherichia coli) [µM] | MIC (Klebsiella pneumoniae) [µM] | MIC (Pseudomonas aeruginosa [2]) [µM] | MIC (Acinetobacter baumannii) [µM] | MIC (Candida albicans) [µM]
NS(=O)(=O)c1ccc(NC(=O)NC(c2ccccc2)c2ccccc2)cc1 | > 20 | > 20 | > 20 | > 20 | > 20 | > 20 | > 20 | > 20 | > 20
Oc1cc(-c2cccc3ccccc23)[nH]n1 | > 20 | > 20 | > 20 | > 20 | > 20 | > 20 | > 20 | > 20 | > 20
O=C1[C@H](CC[C@H](O)c2ccc(F)cc2)[C@@H](c2ccc(O)cc2)N1c1ccc(F)cc1 [EZETIMIBE] | > 20 | > 20 | > 20 | > 20 | > 20 | > 20 | > 20 | > 20 | > 20
COc1ccc2sc3c(c2c1)NC(C)CNC3=O (stereo unspecified) | 8.52 | > 20 | > 20 | > 20 | > 20 | > 20 | > 20 | > 20 | > 20
CCOc1noc2cc(OCCC3CCN(c4ccc(C)nn4)CC3)ccc12 | > 20 | > 20 | > 20 | > 20 | > 20 | > 20 | > 20 | > 20 | > 20
N=C(N)NCCCCC(=O)Nc1cc(C(F)(F)F)cc(NC(=O)c2cc(C(=O)Nc3cc(C(F)(F)F)cc(NC(=O)CCCCNC(=N)N)c3O[C@@H]3CCNC3)ncn2)c1O[C@@H]1CCNC1 | > 20 | 5 (≈ 4.68 µg/mL) | 0.312 (≈ 0.293 µg/mL) | ≤ 0.156 | 1.25 (≈ 1.17 µg/mL) | 2.5 (≈ 2.34 µg/mL) | 10 (≈ 9.37 µg/mL) | 5 (≈ 4.68 µg/mL) | > 20
NC(=S)N/N=C/c1ncccc1N [TRIAPINE] | 2.83 | 20 (≈ 3.91 µg/mL) | > 20 | > 20 | > 20 | > 20 | > 20 | > 20 | > 20
NCCCc1ccccc1C(=O)Nc1ncc([N+](=O)O)s1 | > 20 | > 20 | > 20 | > 20 | > 20 | > 20 | > 20 | > 20 | > 20
CC[C@H](NC(=O)[C@H](C)NC)C(=O)N1C[C@@H](O)C[C@H]1Cc1c(-c2[nH]c3cc(F)ccc3c2C[C@@H]2C[C@H](O)CN2C(=O)[C@H](CC)NC(=O)[C@H](C)NC)[nH]c2cc(F)ccc12 [BIRINAPANT] | > 20 | > 20 | > 20 | > 20 | > 20 | > 20 | > 20 | > 20 | > 20
CC(=O)N[C@H](C)C(=O)N[C@H](Cc1ccccc1)C(=O)O | > 20 | > 20 | > 20 | > 20 | > 20 | > 20 | > 20 | > 20 | > 20
Nc1nc(N)c2c(Sc3ccccc3)cccc2n1 | 10.8 | > 20 | > 20 | > 20 | > 20 | > 20 | > 20 | > 20 | > 20
O=C(Nc1cccc(C2=NCCN2)c1)c1ccc(-c2ccc(C(=O)Nc3cccc(C4=NCCN4)c3)cc2)cc1 | > 20 | 5 (≈ 2.64 µg/mL) | > 20 | 0.625 (≈ 0.33 µg/mL) | 2.5 (≈ 1.32 µg/mL) | > 20 | > 20 | > 20 | > 20
COc1ccc(NC(=O)c2cc3ccccn3n2)cc1 | > 20 | > 20 | > 20 | > 20 | > 20 | > 20 | > 20 | > 20 | > 20
C=CCN(C(=O)OCc1ccc([N+](=O)[O-])cc1)C1CCN(CC[C@](C)(CN(C)S(=O)(=O)c2ccccc2)c2ccccc2)CC1 | > 20 | > 20 | > 20 | > 20 | > 20 | > 20 | > 20 | > 20 | > 20
